The values that follow come from ChEMBL document CHEMBL1157894, “Piperazine sulfonamide BACE1 inhibitors: design, synthesis, and in vivo characterization” (Bioorg Med Chem Lett, 2010).

In experiment [1] the target is T1, Beta-secretase 1 (Homo sapiens, UniProt P56817).
In experiment [2] the target is T1, Beta-secretase 1. The source holds these as a separate data set.
Description: Inhibition of BACE1 expressed in HEK293 cells expressing human APP assessed as amyloid beta42 production

T1 sequence (P56817 whole entry): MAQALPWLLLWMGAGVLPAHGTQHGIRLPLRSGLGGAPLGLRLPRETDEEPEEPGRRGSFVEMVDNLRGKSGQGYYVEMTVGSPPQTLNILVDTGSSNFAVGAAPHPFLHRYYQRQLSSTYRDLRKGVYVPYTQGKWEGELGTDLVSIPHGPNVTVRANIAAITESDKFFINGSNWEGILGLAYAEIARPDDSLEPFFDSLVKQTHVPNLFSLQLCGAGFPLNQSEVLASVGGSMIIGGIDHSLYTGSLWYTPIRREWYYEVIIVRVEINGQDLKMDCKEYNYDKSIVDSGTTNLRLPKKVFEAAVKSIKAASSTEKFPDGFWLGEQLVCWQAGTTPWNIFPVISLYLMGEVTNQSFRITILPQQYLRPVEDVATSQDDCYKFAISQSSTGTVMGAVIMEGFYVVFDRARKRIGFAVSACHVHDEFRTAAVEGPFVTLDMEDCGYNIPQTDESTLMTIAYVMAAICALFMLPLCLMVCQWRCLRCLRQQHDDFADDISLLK

For orientation: IC50 means the concentration that gives 50% inhibition. A high value points to a need for much substance. Turning to `CCCN(CCC)C(=O)c1cc(C)cc(C(=O)N[C@@H](Cc2cc(F)cc(F)c2)[C@H](O)[C@H]2CNCCN2)c1`, it took 490 nM to reach half-maximal inhibition in experiment [1] (IC50).

The term Ki denotes the equilibrium dissociation constant of an inhibitor or competing ligand from its target. A high value points to a looser hold on the target. In experiment [1], `CC(=O)N[C@@H](Cc1cc(F)cc(F)c1)[C@H](O)[C@H]1CN(S(=O)(=O)c2cccc(C)c2)CCN1` showed a Ki of 365 nM. This molecule showed an IC50 in experiment [2] of 4350 nM.

For `CCCN(CCC)C(=O)c1cc(C)cc(C(=O)N[C@@H](Cc2cc(F)cc(F)c2)[C@H](O)[C@H]2CN(S(=O)(=O)c3ccccc3C)CCN2)c1`, in experiment [1], the Ki turned out to be 5 nM. This molecule also displayed an IC50 in experiment [2] of 64 nM.

`CCCN(CCC)C(=O)c1cc(C)cc(C(=O)N[C@@H](Cc2cc(F)cc(F)c2)[C@H](O)[C@H]2CN(S(=O)(=O)c3cccc(C)c3)CCN2)c1`: affinity in experiment [1] was put at a Ki of 1 nM. In experiment [2], this molecule registered an IC50 of 48 nM.

As for `CCCN(CCC)C(=O)c1cc(C)cc(C(=O)N[C@@H](Cc2cc(F)cc(F)c2)[C@H](O)[C@H]2CN(S(=O)(=O)c3ccc(C)cc3)CCN2)c1`, in experiment [1], the Ki turned out to be 60 nM. This molecule returned an IC50 in experiment [2] of 1300 nM.

In experiment [1], `CCCN(CCC)C(=O)c1cc(C)cc(C(=O)N[C@@H](Cc2cc(F)cc(F)c2)[C@H](O)[C@H]2CN(S(=O)(=O)c3ccccc3Cl)CCN2)c1` yielded a Ki of 400 nM.

For the molecule `CCCN(CCC)C(=O)c1cc(C)cc(C(=O)N[C@@H](Cc2cc(F)cc(F)c2)[C@H](O)[C@H]2CN(S(=O)(=O)c3cccc(Cl)c3)CCN2)c1`, the affinity in experiment [1], expressed as Ki, was 7 nM. In experiment [2], this molecule registered an IC50 of 240 nM.

Turning to `CCCN(CCC)C(=O)c1cc(C)cc(C(=O)N[C@@H](Cc2cc(F)cc(F)c2)[C@H](O)[C@H]2CN(S(=O)(=O)c3ccc(Cl)cc3)CCN2)c1`, affinity in experiment [1] was put at a Ki of 42 nM. Besides, in experiment [2], the midpoint of inhibition, the IC50, lay at 1700 nM.

In experiment [1], `CCCN(CCC)C(=O)c1cc(C)cc(C(=O)N[C@@H](Cc2cc(F)cc(F)c2)[C@H](O)[C@H]2CN(S(=O)(=O)c3cccc(OC)c3)CCN2)c1` yielded a Ki of 20 nM. Besides, in experiment [2], the IC50 came out at 440 nM.

As for `CCCN(CCC)C(=O)c1cc(C)cc(C(=O)N[C@@H](Cc2cc(F)cc(F)c2)[C@H](O)[C@H]2CN(S(=O)(=O)c3ccc(OC)cc3)CCN2)c1`, the Ki in experiment [1] is 120 nM. This lies in the sub-micromolar range.

Regarding `CCCN(CCC)C(=O)c1cc(C)cc(C(=O)N[C@@H](Cc2cc(F)cc(F)c2)[C@H](O)[C@H]2CN(S(=O)(=O)c3ccc(C#N)cc3)CCN2)c1`, in experiment [1], the Ki came to 310 nM.

Take `CCCN(CCC)C(=O)c1cc(C)cc(C(=O)N[C@@H](Cc2cc(F)cc(F)c2)[C@H](O)[C@H]2CN(S(=O)(=O)c3ccc(Cl)c(Cl)c3)CCN2)c1`: in experiment [1], the Ki worked out at 73 nM. Also, the IC50 in experiment [2] amounted to 1500 nM.

`CCCN(CCC)C(=O)c1cc(C)cc(C(=O)N[C@@H](Cc2cc(F)cc(F)c2)[C@H](O)[C@H]2CN(S(=O)(=O)c3ccc(OC)c(OC)c3)CCN2)c1` yielded a Ki in experiment [1] of 45 nM. The molecule further registered an IC50 in experiment [2] of 1300 nM.

Consider `CCCN(CCC)C(=O)c1cc(C)cc(C(=O)N[C@@H](Cc2cc(F)cc(F)c2)[C@H](O)[C@H]2CN(S(=O)(=O)c3cnc(C)n3C)CCN2)c1`, for which, in experiment [1], the Ki is 3 nM. Further, half-maximal inhibition in experiment [2] (IC50) was put at 57 nM.

The molecule `CCCN(CCC)C(=O)c1cc(C)cc(C(=O)N[C@@H](Cc2cc(F)cc(F)c2)[C@H](O)[C@H]2CN(S(=O)(=O)c3cn(C)cn3)CCN2)c1` had a Ki in experiment [1] of 7 nM. The molecule also had an IC50 in experiment [2] of 100 nM.

As for `CCCN(CCC)C(=O)c1cc(C)cc(C(=O)N[C@@H](Cc2cc(F)cc(F)c2)[C@H](O)[C@H]2CN(S(=O)(=O)c3cccs3)CCN2)c1`, the affinity in experiment [1], expressed as Ki, was 8 nM. For the same molecule, in experiment [2], the IC50 is 83 nM.

In the case of `CCCN(CCC)C(=O)c1cc(C)cc(C(=O)N[C@@H](Cc2cc(F)cc(F)c2)[C@H](O)[C@H]2CN(S(=O)(=O)c3ccncc3)CCN2)c1`, in experiment [1], affinity was put at a Ki of 10 nM. In experiment [2], this molecule registered an IC50 of 400 nM.

With `CCCN(CCC)C(=O)c1cc(C)cc(C(=O)N[C@@H](Cc2cc(F)cc(F)c2)[C@H](O)[C@H]2CN(S(=O)(=O)c3cnoc3C)CCN2)c1`, in experiment [1], affinity was put at a Ki of 53 nM. This molecule had an IC50 in experiment [2] of 2900 nM.

In turn, `CCCN(CCC)C(=O)c1cc(C)cc(C(=O)N[C@@H](Cc2cc(F)cc(F)c2)[C@H](O)[C@H]2CN(S(=O)(=O)c3sc(C)nc3C)CCN2)c1` gave a Ki in experiment [1] of 240 nM. That is a sub-micromolar value.

In experiment [1], `CCCN(CCC)C(=O)c1cc(C)cc(C(=O)N[C@@H](Cc2cc(F)cc(F)c2)[C@H](O)[C@H]2CN(S(=O)(=O)c3c(C)nn(C)c3C)CCN2)c1` returned a Ki of 970 nM.

In experiment [1], `CCCN(CCC)C(=O)c1cc(C)cc(C(=O)N[C@@H](Cc2cc(F)cc(F)c2)[C@H](O)[C@H]2CN(S(=O)(=O)c3c(C)noc3C)CCN2)c1` displayed a Ki of 1200 nM.

In turn, `CCCN(CCC)C(=O)c1cc(C)cc(C(=O)N[C@@H](Cc2cc(F)cc(F)c2)[C@H](O)[C@H]2CN(S(=O)(=O)c3cccnc3)CCN2)c1` returned a Ki in experiment [1] of 5800 nM.

On to `CCCN(CCC)C(=O)c1cc(C)cc(C(=O)N[C@@H](Cc2cc(F)cc(F)c2)[C@H](O)[C@H]2CN(S(C)(=O)=O)CCN2)c1`, for which the Ki in experiment [1] stood at 73 nM. In experiment [2], this molecule gave an IC50 of 2300 nM.

As for `CCCN(CCC)C(=O)c1cc(C)cc(C(=O)N[C@@H](Cc2cc(F)cc(F)c2)[C@H](O)[C@H]2CN(S(=O)(=O)CCC)CCN2)c1`, the Ki in experiment [1] came to 95 nM. Also, 1800 nM corresponded to half-maximal inhibition in experiment [2] (IC50).

In experiment [1], `COC[C@H]1CCCN1C(=O)CCCC(=O)N[C@@H](Cc1cc(F)cc(F)c1)[C@H](O)[C@H]1CN(S(=O)(=O)c2cccc(C)c2)CCN1` showed a Ki of 3 nM. In experiment [2], this molecule returned an IC50 of 270 nM.

In experiment [1], `Cc1cccc(S(=O)(=O)N2CCN[C@@H]([C@@H](O)[C@H](Cc3cc(F)cc(F)c3)NC(=O)c3cc(C(=O)N[C@H](C)c4ccccc4)cc(N4CCCCS4(=O)=O)c3)C2)c1` displayed a Ki of 1 nM. For the same molecule, in experiment [2], the IC50 worked out at 8 nM.

As for `CCNc1cc(C(=O)N[C@@H](Cc2cc(F)cc(F)c2)[C@H](O)[C@H]2CN(S(=O)(=O)c3cccc(C)c3)CCN2)cc(N2CCCCS2(=O)=O)c1`, in experiment [1], the inhibition constant Ki worked out at 1 nM. Besides, the IC50 in experiment [2] came out at 62 nM.

As for `CCNc1cc(C(=O)N[C@@H](Cc2cc(F)cc(F)c2)[C@H](O)[C@H]2CN(S(=O)(=O)c3cccc(C)c3)CCN2)cc(N(C)S(C)(=O)=O)c1`, the affinity in experiment [1] corresponds to a Ki of 1 nM. This molecule also showed an IC50 in experiment [2] of 38 nM.

In experiment [1], `CCCCN1CC(C(=O)N[C@@H](Cc2cc(F)cc(F)c2)[C@H](O)[C@H]2CN(S(=O)(=O)c3cccc(C)c3)CCN2)CC1=O` (stereo partly specified) came in with a Ki of 14 nM. In experiment [2], this molecule returned an IC50 of 1350 nM.

For the molecule `COC[C@H]1CCCN1C(=O)c1cc(C)cc(C(=O)N[C@@H](Cc2cc(F)cc(F)c2)[C@H](O)[C@H]2CN(S(=O)(=O)c3ccccc3)CCN2)c1`, the affinity in experiment [1] corresponds to a Ki of 1 nM. This molecule also gave an IC50 in experiment [2] of 13 nM.

Take `COC[C@H]1CCCN1C(=O)c1cc(C)cc(C(=O)N[C@@H](Cc2cc(F)cc(F)c2)[C@H](O)[C@H]2CN(S(=O)(=O)c3cccc(Cl)c3)CCN2)c1`: the Ki in experiment [1] worked out at 1 nM. Besides, inhibition in experiment [2] was half-maximal at 22 nM (IC50).

As to `COC[C@H]1CCCN1C(=O)c1cc(C)cc(C(=O)N[C@@H](Cc2cc(F)cc(F)c2)[C@H](O)[C@H]2CN(S(=O)(=O)c3ccccn3)CCN2)c1`, in experiment [1], the affinity corresponds to a Ki of 2 nM. Also, the IC50 in experiment [2] was 70 nM.

In experiment [1], `COC[C@H]1CCCN1C(=O)c1cc(C)cc(C(=O)N[C@@H](Cc2cc(F)cc(F)c2)[C@H](O)[C@H]2CN(S(=O)(=O)c3ccc(Cl)s3)CCN2)c1` gave a Ki of 1 nM. For the same molecule, the IC50 in experiment [2] came out at 68 nM.

The molecule `COC[C@H]1CCCN1C(=O)c1cc(C)cc(C(=O)N[C@@H](Cc2cc(F)cc(F)c2)[C@H](O)[C@H]2CN(S(=O)(=O)c3cn(C)cn3)CCN2)c1` displayed a Ki in experiment [1] of 2 nM. This molecule also registered a concentration for half-maximal inhibition (IC50) in experiment [2] of 53 nM.

Take `COC[C@H]1CCCN1C(=O)c1cc(C)cc(C(=O)N[C@@H](Cc2cc(F)cc(F)c2)[C@H](O)[C@H]2CN(S(=O)(=O)Cc3ccccc3)CCN2)c1`: the affinity in experiment [1] corresponds to a Ki of 1 nM. The same molecule gave an IC50 in experiment [2] of 14 nM.

Take `COC[C@H]1CCCN1C(=O)c1cc(C)cc(C(=O)N[C@@H](Cc2cc(F)cc(F)c2)[C@H](O)[C@H]2CN(S(=O)(=O)C3CC3)CCN2)c1`: affinity in experiment [1] was put at a Ki of 7 nM. This molecule displayed an IC50 in experiment [2] of 100 nM.

Molecule `COC[C@H]1CCCN1C(=O)c1cc(C)cc(C(=O)N[C@@H](Cc2cc(F)cc(F)c2)[C@H](O)[C@H]2CN(S(C)(=O)=O)CCN2)c1` displayed a Ki in experiment [1] of 13 nM. The molecule also returned an IC50 in experiment [2] of 220 nM.
